Target: T1, hα7-wt nAChR stably expressed in the GH4C1 cell line (Homo sapiens, UniProt P36544)
T1 construct: expressed in transfected cells
Test: Ca2+ flux imaging (FLIPR) of PAM activity with choline as agonist
Assay type: cell-based
Details: efficacy relative to 100 μM choline alone (defined as 1); peak fluorescence, fluo-4AM; compounds tested 0.1 μM to 30 μM, efficacy criterion at 10 μM
Source text: Stable expression in mammalian cells in general and rat GH4C1 cells in particular, of cDNA clones encoding the human α7 wild-type sequence (hα7-wt nAChR) and in which the coding region is placed downstream of a promoter results in the appearance of functional α7 nAChRs on the surface of the mammalian cells. This technique has provided a powerful means of assessing the function of α7 wild-type protein. Given the fact that the cation permeability of the α7 nicotinic receptor preferentially favours calcium, fluorescent imaging of Ca^2+ flux through the hα7-wt nAChR stably expressed in the GH4C1 cell line was used as a first means of assaying modulator activity of the compounds of the present invention.
a) Assay Buffer • Hanks buffered saline solution (HBSS, Invitrogen, Belgium), supplemented with 10 mM HEPES (Invitrogen, Belgium), CaCl2 to a final concentration of 5 mM, 0.1% Bovine serum albumin (Sigma-Aldrich NV, Belgium), 2.5 mM probenecid (Sigma-Aldrich NV, Belgium).
b) Calcium-Sensitive Dye—Fluo-4AM • Fluo-4AM (Molecular Probes, USA) was dissolved in DMSO containing 10% Pluronic acid (Molecular Probes, USA) to give a stock solution which was aliquoted and could be stored at −20° C. until later use. On the day of the experiment Fluo-4AM stock was defrosted and diluted in DMEM/F12 (Invitrogen, Belgium) containing 2.5 mM probenicid and 0.1% BSA to give a final concentration of 2 μM.
c) 96-well Plates • BD Biocoat poly-D-lysine 96-well black/clear bottom plates (BD Biosciences, Belgium)
d) Calcium Flux Measurement • A Fluorimetric Imaging Plate Reader (FLIPR, Molecular Devices Corporation, Sunnyvale, USA) was used to measure intracellular free-calcium flux signals
Monolayers of hα7-wt nAChR-expressing cells were grown in multi-well plates, in particular black-sided, transparent bottomed 96 well plates coated with poly-D-lysine for 24 hours prior to loading with a fluorescent calcium indicator, in a particular embodiment loading with fluo-3 or fluo-4AM for up to 90 minutes, in an even more particular embodiment loading with fluo-4AM for up to 90 minutes, and in a preferred embodiment loading with fluo-4AM for 60 minutes.
In a particular embodiment, the α7 nicotinic receptor agonist was choline, a more particular embodiment choline applied at a sub-maximal concentration of 100 μM.
A control response to choline was calculated on each plate from the difference in peak fluorescence in wells receiving either choline or assay buffer alone. Compounds of the present invention were tested at a concentration range from 0.1 μM to 30 μM.
The activity ranges are defined as follows; A denotes an activity range from 1.1 till 1.5, B denotes an activity range from 1.5 till 2.0, C denotes an activity range from 2.0 till 3.0, D denotes an activity range from 3.0 till 4.5 and E denotes an efficacy from at least 4.5.

T1 sequence (P36544 23-502): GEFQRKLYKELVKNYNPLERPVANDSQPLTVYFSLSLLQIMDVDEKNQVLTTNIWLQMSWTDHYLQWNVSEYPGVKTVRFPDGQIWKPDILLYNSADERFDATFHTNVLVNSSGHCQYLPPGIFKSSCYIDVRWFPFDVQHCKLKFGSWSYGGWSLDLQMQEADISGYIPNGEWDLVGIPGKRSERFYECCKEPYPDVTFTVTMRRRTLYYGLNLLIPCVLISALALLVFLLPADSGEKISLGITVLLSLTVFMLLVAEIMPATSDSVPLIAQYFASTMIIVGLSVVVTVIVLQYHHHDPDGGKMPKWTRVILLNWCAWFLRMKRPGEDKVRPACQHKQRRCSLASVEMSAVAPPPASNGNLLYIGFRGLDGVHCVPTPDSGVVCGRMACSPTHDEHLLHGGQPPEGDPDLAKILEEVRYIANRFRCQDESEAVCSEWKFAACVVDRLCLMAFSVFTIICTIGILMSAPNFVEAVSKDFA

SMILES	Activity Range
COc1ccc(Nc2nc(-c3cnc4ccccn34)cs2)cc1OC [Compound 55]	B (B denotes an activity range from 1.5 till 2.0)
COc1ccc(Nc2nc(-c3cccnc3)c(C)s2)cc1 [Compound 139]	D (D denotes an activity range from 3.0 till 4.5)
Fc1sc(Nc2cccc(C(F)(F)F)c2)nc1-c1cnc2ccccn12 [Compound 80]	C (C denotes an activity range from 2.0 till 3.0)
OCc1sc(Nc2cccc(C(F)(F)F)c2)nc1C(F)(F)F [Compound 119]	E (E denotes an efficacy from at least 4.5)
OCc1sc(Nc2cccc(C(F)(F)F)c2)nc1-c1ccc(Cl)cc1Cl [Compound 31, [4-(2,4-Dichloro-phenyl)-2-(3-trifluoromethyl-phenylamino)-thiazol-5-yl]-methanol]	B (B denotes an activity range from 1.5 till 2.0)
COc1cc(OC)c(Nc2nc(-c3ccc(F)c(F)c3)c(CC(=O)N3CCCC3)s2)cc1Cl [Compound 132]	E (E denotes an efficacy from at least 4.5)
Cc1ccc(Nc2nc(-c3cccnc3)cs2)cc1 [Compound 77]	C (C denotes an activity range from 2.0 till 3.0)
FC(F)(F)c1cncc(Nc2nc(-c3cnc4ccccn34)cs2)c1 [Compound 47]	C (C denotes an activity range from 2.0 till 3.0)
FC(F)(F)c1cc(Nc2nc(-c3cnc4ccccn34)cs2)ccc1Cl [Compound 54]	A (A denotes an activity range from 1.1 till 1.5)
COc1ccc(OC)c(-c2csc(Nc3ccccc3Cl)n2)c1 [Compound 43]	B (B denotes an activity range from 1.5 till 2.0)
CNC(=O)Cc1sc(Nc2cccc(C(F)(F)F)c2)nc1-c1ccccc1 [Compound 131]	E (E denotes an efficacy from at least 4.5)
Cc1cncc(-c2nc(Nc3cccc(Cl)c3Cl)sc2CO)c1 [Compound 128]	E (E denotes an efficacy from at least 4.5)
Cc1ccc(Nc2nc(-c3cncc(Br)c3)c(CO)s2)cn1 [Compound 125]	E (E denotes an efficacy from at least 4.5)
FC(F)(F)c1cccc(Nc2nc(-c3cncnc3)cs2)c1 [Compound 73]	C (C denotes an activity range from 2.0 till 3.0)
Cc1ccc(Nc2nc(-c3cccnc3)cs2)cn1 [Compound 66]	D (D denotes an activity range from 3.0 till 4.5)
Cc1cccc(Nc2nc(-c3cccnc3)cs2)c1 [Compound 76]	C (C denotes an activity range from 2.0 till 3.0)
CC(C)c1nc(Nc2cccc(C(F)(F)F)c2)sc1CO [Compound 116]	E (E denotes an efficacy from at least 4.5)
Fc1ccc(Nc2nc(-c3cccnc3)c(Br)s2)cc1C(F)(F)F [Compound 84]	C (C denotes an activity range from 2.0 till 3.0)
COCCNC(=O)Cc1sc(Nc2cc(Cl)ccc2Cl)nc1-c1ccncc1 [Compound 106, 2-[(2,5-dichlorophenyl)amino]-N-(2-methoxyethyl)-4-(4-pyridinyl)-5-thiazoleacetamide]	E (E denotes an efficacy from at least 4.5)
COc1cc(OC)c(Nc2nc(-c3ccncc3)c(CN3CCOCC3)s2)cc1Cl [Compound 100]	D (D denotes an activity range from 3.0 till 4.5)
Brc1ccc(Nc2nc(-c3cccnc3)cs2)cn1 [Compound 64]	D (D denotes an activity range from 3.0 till 4.5)
Nc1cncc(-c2csc(Nc3ccc(F)c(C(F)(F)F)c3)n2)c1 [Compound 10]	A (A denotes an activity range from 1.1 till 1.5)
CSc1cccc(Nc2nc(-c3cccnc3)c(C)s2)c1 [Compound 141]	C (C denotes an activity range from 2.0 till 3.0)
COCCc1nc(Nc2ccc(OC)cc2)sc1C(=O)OC [Compound 158]	E (E denotes an efficacy from at least 4.5)
N#CCc1sc(Nc2cccc(C(F)(F)F)c2)nc1-c1ccccc1 [int. 3, [4-Phenyl-2-(3-trifluoromethyl-phenylamino)-thiazol-5-yl]-acetonitrile]	D (D denotes an activity range from 3.0 till 4.5)

SMILES	Activity Range
COCc1sc(Nc2cc(Cl)ccc2Cl)nc1-c1ccccc1 [Compound 98]	E (E denotes an efficacy from at least 4.5)
COCCc1nc(Nc2cccc(C(F)(F)F)c2)sc1C(=O)OC [Compound 159]	E (E denotes an efficacy from at least 4.5)
CC(C)NC(=O)Cc1sc(Nc2cc(Cl)ccc2Cl)nc1-c1ccncc1 [Compound 161, 2-[(2,5-dichlorophenyl)amino]-N-(1-methylethyl)-4-(4-pyridinyl)-5-thiazoleacetamide]	E (E denotes an efficacy from at least 4.5)
Cc1ccc(-c2csc(Nc3cccc(C(F)(F)F)c3)n2)cn1 [Compound 68]	E (E denotes an efficacy from at least 4.5)
CCCc1nc(Nc2ccc(OC)cc2)sc1C(=O)OCC [Compound 102]	E (E denotes an efficacy from at least 4.5)
CCOC(=O)c1sc(Nc2ccc(OC)cc2)nc1C1CCCN(C(=O)OCc2ccccc2)C1 (stereo not shown) [Compound 104]	E (E denotes an efficacy from at least 4.5)
COC(=O)c1sc(Nc2ccc(OC)cc2)nc1C(C)C [Compound 151]	E (E denotes an efficacy from at least 4.5)
Cc1cc(Nc2nc(-c3cccnc3)cs2)ccc1F [Compound 78]	B (B denotes an activity range from 1.5 till 2.0)
COCCc1nc(Nc2cc(Cl)ccc2Cl)sc1C(=O)OC [Compound 157]	E (E denotes an efficacy from at least 4.5)
COc1ccc(Nc2nc(-c3cc(Cl)c(OC)cc3OC)c(CO)s2)c(OC)c1 [Compound 126]	E (E denotes an efficacy from at least 4.5)
Cc1sc(Nc2ccc(Cl)nc2)nc1-c1cccnc1 [Compound 88]	C (C denotes an activity range from 2.0 till 3.0)
COc1ccc(Nc2nc(-c3ccccc3)c(Br)s2)cc1 [Compound 93]	E (E denotes an efficacy from at least 4.5)
NC(=O)Cc1sc(Nc2cccc(C(F)(F)F)c2)nc1-c1ccc(Cl)cc1Cl [Compound 18, 2-[4-(2,4-Dichloro-phenyl)-2-(3-trifluoromethyl-phenylamino)-thiazol-5-yl]-acetamide]	B (B denotes an activity range from 1.5 till 2.0)
CCOC(=O)NCc1sc(Nc2cccc(C(F)(F)F)c2)nc1-c1cccnc1 [Compound 168]	E (E denotes an efficacy from at least 4.5)
Fc1ccc(Nc2nc(-c3cccnc3)c(CN3CCOCC3)s2)cc1C(F)(F)F [Compound 90, (4-Fluoro-3-trifluoromethyl-phenyl)-(5-morpholin-4-ylmethyl-4-pyridin-3-yl-thiazol-2-yl)-amine]	C (C denotes an activity range from 2.0 till 3.0)
COC(=O)c1sc(Nc2cccc(C(F)(F)F)c2)nc1C(C)C [Compound 148]	E (E denotes an efficacy from at least 4.5)
CCCc1nc(Nc2cc(Cl)ccc2Cl)sc1C(=O)OCC [Compound 156]	E (E denotes an efficacy from at least 4.5)
COCc1nc(Nc2cccc(C(F)(F)F)c2)sc1C(=O)OC [Compound 103]	E (E denotes an efficacy from at least 4.5)
CC(=O)c1sc(Nc2cc(Cl)ccc2Cl)nc1C [Compound 110]	E (E denotes an efficacy from at least 4.5)
COc1ccc(OC)c(-c2csc(Nc3cc(F)ccc3C)n2)c1 [Compound 33]	D (D denotes an activity range from 3.0 till 4.5)
Brc1ccc(Nc2nc(-c3cnc4ccccn34)cs2)cn1 [Compound 45]	D (D denotes an activity range from 3.0 till 4.5)
Cc1cc(C(=O)NCc2sc(Nc3cccc(C(F)(F)F)c3)nc2-c2cccnc2)no1 [Compound 108, 5-methyl-N-[[4-(3-pyridinyl)-2-[[3-(trifluoromethyl)phenyl]amino]-5-thiazolyl]methyl]-3-isoxazolecarboxamide]	E (E denotes an efficacy from at least 4.5)
Cc1ccc(Nc2nc(-c3ccccc3)c(C(=O)Nc3cccnc3)s2)c(C)c1 [Compound 170, 5-Thiazolecarboxamide, 2-[(2,4-dimethylphenyl)amino]-4-phenyl-N-3-pyridinyl-]	E (E denotes an efficacy from at least 4.5)
Fc1cncc(-c2csc(Nc3ccc(F)c(C(F)(F)F)c3)n2)c1 [Compound 5]	D (D denotes an activity range from 3.0 till 4.5)

Reference: patent publication US9388175B2, “2-aniline-4-aryl substituted thiazole derivatives” (Janssen Pharmaceutica N.V., priority 2005, dated 2016)
